Experimental data: PubChem BioAssay AID467 (The Scripps Research Institute Molecular Screening Center, 2006)
Activity calls are given as the source filed them. No rule for the calls is given here.

system: parental cell line counter screen, S1P1 agonist assay readout; assay: signal in parental cells, counter-screen for S1P1 agonist project (AID 467);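 also: agonist potency measured against forskolin stimulation plus an EC20 level of SEW2871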

Compound | EC50
Cc1nnc2ccc(Oc3ccc(-c4ccccc4)cc3)nn12 | > 30 µM (inactive)
O=C(Nc1ccc(OC(F)F)c(Cl)c1)Nc1ccc2c(c1)OCO2 | > 10 µM (inactive)
COc1cc2c(cc1OC)C(C)N(C(=O)c1cc3ccccc3o1)CC2 (configuration not stated) | > 95.1 µM (inactive)
CCCCOc1ncnc2c1[nH]c1ccc(F)cc12 | > 95.1 µM (inactive)
c1ccc(N2CCN(c3ncnc4c3oc3ccccc34)CC2)cc1 | > 95.1 µM (inactive)
COC(=O)c1cc(NCc2ccccc2F)ccc1N1CCOCC1 | > 95.1 µM (inactive)
Cc1ccc(-c2csc3ncnc(Sc4nnc(CN5CCCCCC5=O)o4)c23)cc1 | 2.73 µM
CC(=O)c1ccc(N2CCN(c3ccc(C(F)(F)F)cn3)CC2)cc1 | > 95.1 µM (inactive)
CCOC(=O)c1cccc2c1-c1ccccc1/C2=N/O | 12 µM (inactive)
Fc1ccc(COc2ccc(/C=N/n3cnnc3)cc2)cc1 | > 95.1 µM (inactive)
Nc1nnnn1/N=C/C(Br)=C/c1ccccc1 | 4.08 µM
CCCC(=O)Nc1ccc2oc(-c3ccc(OC)c(Br)c3)nc2c1 | > 95.1 µM (inactive)
Cc1cc(C(=O)N2CCN(C(c3ccccc3)c3ccccc3)CC2)no1 | > 95.1 µM (inactive)
Cc1cc(N2CCOCC2)nc(NCc2ccccc2)n1 | 71.3 µM (inactive)
Clc1ccc(OCCN2CCN(c3ncnc4sccc34)CC2)cc1 | 2.63 µM
Cc1ccc(N2C(=O)c3cccc4c(N5CCN(C)CC5)ccc(c34)C2=O)c2cccnc12 | > 95.1 µM (inactive)
CCOc1ccc(-c2nnc(-c3cccs3)o2)cc1OCC | > 95.1 µM (inactive)
Cc1ccc(C(C)C)c(OCc2nc(-c3nonc3N)no2)c1 | > 30 µM (inactive)
CCN(C(=O)C1CCCCC1)c1nnc(-c2cccnc2)s1 | > 95.1 µM (inactive)
O=C(CSc1nnc(Cn2nnc3ccccc32)o1)N(Cc1ccc(F)cc1)c1ccccc1 | 30.6 µM (inactive)
COc1ccc(-c2noc(-c3cccc(OC)c3OC)n2)cc1OC | > 95.1 µM (inactive)
CCC(C)c1ccc2oc(-c3ccc(NC(=O)Cn4cnc5c(=O)n(C)c(=O)n(C)c54)cc3)nc2c1 (configuration not stated) | > 95.1 µM (inactive)
Cn1nc(C(C)(C)C)cc1C(=O)NCc1ccc(N2CCCC2=O)cc1 | > 30 µM (inactive)
CCOC(=O)c1cnc(-n2nc(C)cc2C)nc1NC1CCCCC1 | 5.93 µM
N#C/C(=C/c1ccc(N2CCCCCC2)o1)c1ccc(F)cc1 | 4.4 µM
CCc1ccc(NC(=O)c2cc(-c3ccco3)on2)cc1 | > 95.1 µM (inactive)

Compound | EC50
Cc1cc(C(=O)CSc2nnc(-c3ccncc3)n2-c2ccccc2)c(C)n1C | > 95.1 µM (inactive)
COc1ccc2c(c1)CCc1c(C(=O)NC3CCCCC3)noc1-2 | > 95.1 µM (inactive)
Clc1ccc(CSc2nnc(-c3ccncc3)o2)cc1 | 86.9 µM (inactive)
C=CCn1c(C)cc(C(=O)CSc2nc3ccccc3o2)c1C | > 30 µM (inactive)
O=C(Nc1nc(-c2ccc(Cl)s2)cs1)c1ccncc1 | > 95.1 µM (inactive)
Cc1ccc(-c2n[nH]c(=S)n2C)cc1 | > 95.1 µM (inactive)
CCc1ccc(N(CC)c2ncnc3nc[nH]c23)cc1 | > 95.1 µM (inactive)
Cc1nn(Cc2ccc(Cl)c(Cl)c2)c(C)c1NC(=O)c1cc(CC(C)C)on1 | 23.8 µM (inactive)
COc1ccc(-c2cn3c(C)c(C(=O)Nc4ccncc4)sc3n2)cc1 | > 95.1 µM (inactive)
Clc1ccc(CCNc2ncnc3nc[nH]c23)cc1 | 33.6 µM (inactive)
COc1ccc(-c2nc(-c3cccc(C(F)(F)F)c3)no2)cc1OC | > 95.1 µM (inactive)
Cc1ccc(Cl)cc1N1CCN(C(=O)C2CCN(c3nnc(-n4cccc4)s3)CC2)CC1 | > 95.1 µM (inactive)
CCOc1ccc(-c2nc(-c3ccccc3)no2)cc1OCC | > 95.1 µM (inactive)
Cn1ncnc2c(=O)n(C)c(=O)nc1-2 | 1.8 µM
N#Cc1ccc(NC(=O)Nc2ccc(Cl)cc2)cc1 | 9.6 µM
CN1CCN(C(=O)CSc2nc(-c3cccs3)cc(-c3cccs3)c2C#N)CC1 | 19.7 µM (inactive)
COC(=O)c1ccc2c(=O)n(C3CCCCC3)c(SCC#N)nc2c1 | > 95.1 µM (inactive)
CCN=c1sc(C(=O)NCCc2ccccc2)cc(=O)n1CC | 53.2 µM (inactive)
COCCN(C(=O)c1ccccc1)c1nnc(-c2cccnc2)s1 | > 95.1 µM (inactive)
Cc1cc(C(=O)CSc2nnnn2-c2ccc(O)cc2)c(C)n1Cc1ccc2c(c1)OCO2 | 11.9 µM (inactive)
CC(C)(C)OC(=O)N[C@@H](Cc1ccccc1)c1nnc(S(=O)(=O)Cc2cccc(F)c2)o1 | 2.63 µM
Cc1ccc(C(C)C)c(OCc2ccc(-c3nnco3)cc2)c1 | > 95.1 µM (inactive)
CCCCOc1ccc(S(=O)(=O)n2c(C)nc3ccccc32)cc1 | > 95.1 µM (inactive)
CCCS(=O)(=O)c1nnnn1-c1cccc(OC)c1 | 0.988 µM
Oc1ccc(-c2nc(-c3ccc(O)c(O)c3)cs2)cc1 | 6.35 µM
O=C(c1ccccc1)C(CCC(CN1CCOCC1)C(=O)c1ccccc1)CN1CCOCC1 (configuration not stated) | 2.68 µM
